Source: patent US9193722B2, “Tri-cyclic pyrazolopyridine kinase inhibitors” (Vertex Pharmaceuticals Incorporated, priority 2008, dated 2015)

Legend:
Format in all cases: biochemical
PKC theta kinase = PKC theta kinase (Homo sapiens, UniProt Q04759); experiment: PKC theta kinase inhibition, coupled-enzyme (NADH absorbance) assay, Ki; conditions: 240 μM ATP, 18 nM PKC theta kinase, 30° C.
Protocol: An assay buffer solution was prepared which consisted of 100 mM HEPES (pH 7.5), 10 mM MgCl2, 25 mM NaCl, 0.1 mM EDTA and 0.01% Brij. […] To 60 μL of this enzyme buffer, in a 384 well plate, was added 2 μL of VRT stock solution in DMSO. The mixture was allowed to equilibrate for 10 mins at 30° C. […] Ki values were calculated from initial rate data by non-linear regression using the Prism software package (Prism 4.0a, Graphpad Software, San Diego, Calif.).

PKC delta kinase = PKC delta kinase (Homo sapiens, UniProt Q05655); experiment: PKC delta kinase inhibition, coupled-enzyme (NADH absorbance) assay, Ki; conditions: 150 μM ATP, 46 nM PKC delta kinase, 30° C.; read-out: Ki PKC delta
Protocol: (§1) An assay buffer solution was prepared which consisted of 100 mM HEPES (pH 7.5), 10 mM MgCl2, 25 mM NaCl, 0.1 mM EDTA and 0.01% Brij. […] To 16 μL of this enzyme buffer, in a 384 well plate, was added 1 μL of VRT stock solution in DMSO. The mixture was allowed to equilibrate for 10 mins at 30° C. The enzyme reaction was initiated by the addition of 16 μL stock ATP solution prepared in assay buffer to a final assay concentration of 150 μM. Initial rate data was determined from the rate of change of absorbance at 340 nm (corresponding to stoichiometric consumption of NADH) using a Molecular Devices Spectramax plate reader (Sunnyvale, Calif.) over 15 mins at 30° C. […] Ki values were calculated from initial rate data by non-linear regression using the Prism software package (Prism 4.0a, Graphpad Software, San Diego, Calif.).

PKC alpha kinase = PKC alpha kinase (Homo sapiens, UniProt P17252); experiment: PKC alpha kinase inhibition, coupled-enzyme (NADH absorbance) assay, Ki; conditions: 130 μM ATP, 4.5 nM PKC alpha kinase, 30° C.
Protocol: as §1, with “EDTA, 100 μM CaCl2” for “EDTA”, “130” for “150”

Sequence of PKC theta kinase (Q04759 whole entry): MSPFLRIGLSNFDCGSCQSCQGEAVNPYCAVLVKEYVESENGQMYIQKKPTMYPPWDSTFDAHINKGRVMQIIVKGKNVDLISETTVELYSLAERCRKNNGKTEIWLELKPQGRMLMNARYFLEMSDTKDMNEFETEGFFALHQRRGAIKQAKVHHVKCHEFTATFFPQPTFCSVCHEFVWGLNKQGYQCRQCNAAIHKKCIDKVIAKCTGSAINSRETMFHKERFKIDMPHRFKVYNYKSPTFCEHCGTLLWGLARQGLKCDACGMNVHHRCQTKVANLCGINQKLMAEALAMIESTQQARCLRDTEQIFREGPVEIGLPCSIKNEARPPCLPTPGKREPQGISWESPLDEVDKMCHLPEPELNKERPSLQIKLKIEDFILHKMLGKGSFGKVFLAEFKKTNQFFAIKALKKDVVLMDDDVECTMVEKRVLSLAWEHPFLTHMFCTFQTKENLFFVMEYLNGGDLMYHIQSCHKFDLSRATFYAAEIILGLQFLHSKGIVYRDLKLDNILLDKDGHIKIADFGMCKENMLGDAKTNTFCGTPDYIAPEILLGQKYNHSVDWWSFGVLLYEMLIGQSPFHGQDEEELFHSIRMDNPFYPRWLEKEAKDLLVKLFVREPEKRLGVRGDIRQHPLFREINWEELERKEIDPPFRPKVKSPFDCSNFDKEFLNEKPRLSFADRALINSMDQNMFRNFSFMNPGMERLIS
Sequence of PKC delta kinase (Q05655 whole entry): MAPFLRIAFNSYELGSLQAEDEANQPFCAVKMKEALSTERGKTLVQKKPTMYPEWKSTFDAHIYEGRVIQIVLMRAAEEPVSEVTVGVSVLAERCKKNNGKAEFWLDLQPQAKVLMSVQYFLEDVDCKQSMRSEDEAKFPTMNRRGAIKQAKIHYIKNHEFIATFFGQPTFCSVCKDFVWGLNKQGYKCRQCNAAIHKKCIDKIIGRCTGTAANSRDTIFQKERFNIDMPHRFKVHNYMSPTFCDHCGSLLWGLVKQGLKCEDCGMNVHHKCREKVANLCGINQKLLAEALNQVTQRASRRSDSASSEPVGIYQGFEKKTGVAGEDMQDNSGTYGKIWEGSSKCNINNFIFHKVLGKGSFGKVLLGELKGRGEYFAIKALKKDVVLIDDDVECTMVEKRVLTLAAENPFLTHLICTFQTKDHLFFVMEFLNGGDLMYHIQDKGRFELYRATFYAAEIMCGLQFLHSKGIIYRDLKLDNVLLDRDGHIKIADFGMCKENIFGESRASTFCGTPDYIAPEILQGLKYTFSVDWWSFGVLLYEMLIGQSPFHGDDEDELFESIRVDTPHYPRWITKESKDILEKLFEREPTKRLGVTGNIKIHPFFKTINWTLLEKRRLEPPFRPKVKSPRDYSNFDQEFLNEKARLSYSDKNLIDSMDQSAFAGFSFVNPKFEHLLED

| Ki (PKC theta kinase) | Ki (PKC delta kinase) | Ki (PKC alpha kinase) | SMILES |
| --- | --- | --- | --- |
| < 0.05 µM | < 0.5 µM | > 1.25 µM | CC(C)(C)C(N)C1CCN(c2ccc(F)c(-c3n[nH]c4ncccc34)n2)C1 (stereo not drawn) [Compound 421] |
| > 0.7 µM | > 1.25 µM | > 1.25 µM | CC(=O)N1CCN(c2ccc(F)c(-c3n[nH]c4ncccc34)n2)CC1C(C)(O)C(C)C (stereo not drawn) [Compound 414] |
| < 0.05 µM | < 2.8 µM | > 1.25 µM | CC(F)(F)C(C)(O)C1CN(c2ccc(F)c(-c3n[nH]c4ncccc34)n2)CCN1 (stereo not drawn) [Compound 282] |
| < 0.05 µM | < 0.5 µM | < 0.5 µM | CC(C)CC1(C)CN(c2ccc(F)c(-c3n[nH]c4ncccc34)n2)CCC1N (stereo not drawn) [Compound 385] |
| < 0.5 µM | < 2.8 µM | < 2.8 µM | CO[C@H]1CN(c2ccc(F)c(-c3n[nH]c4ncccc34)n2)CC[C@H]1N [Compound 389] |
| > 0.7 µM | > 1.25 µM | > 1.25 µM | CC(C)C[C@H]1CN(c2ccc(F)c(-c3n[nH]c4ncccc34)n2)C[C@H](C)N1 [Compound 182] |
| < 0.05 µM | < 2.8 µM | > 1.25 µM | CC(C)C(N)C1CN(c2ccc(F)c(-c3n[nH]c4ncccc34)n2)CCO1 (stereo not drawn) [Compound 346] |
| < 0.5 µM | > 1.25 µM | > 1.25 µM | CC1(C)CC1(O)C1CN(c2ccc(F)c(-c3n[nH]c4ncccc34)n2)CCN1 (stereo not drawn) [Compound 382] |
| > 0.7 µM | > 1.25 µM | > 1.25 µM | NC[C@H]1CCN(c2ccc(C(F)(F)F)c(-c3n[nH]c4ncccc34)n2)C1 [Compound 354] |
| < 0.5 µM | > 1.25 µM | > 1.25 µM | CC(C)C(O)[C@@H]1CCCN(c2ccc(F)c(-c3n[nH]c4ncccc34)n2)C1 (stereo partly drawn) [Compound 278] |
| < 0.5 µM | < 2.8 µM | > 1.25 µM | OCc1cc(-c2n[nH]c3ncccc23)nc(N2CCNCC2)c1 [Compound 443] |
| < 0.05 µM | < 0.5 µM | < 0.5 µM | CCC[C@H]1CN(c2cccc(-c3n[nH]c4ncccc34)n2)CCCN1 [Compound 228] |
| < 0.05 µM | < 0.5 µM | > 1.25 µM | CC(F)(F)C(C)(O)C1CN(c2ccc(F)c(-c3n[nH]c4ncccc34)n2)CCN1 (stereo not drawn) [Compound 246] |
| < 0.5 µM | < 0.5 µM | < 2.8 µM | CC(C)CC1(CN)CN(c2ccc(C(F)(F)F)c(-c3n[nH]c4ncccc34)n2)CCO1 (stereo not drawn) [Compound 397] |
| < 0.001 µM | < 0.01 µM | < 2.8 µM | CC(F)(F)C(C)(O)C1CN(c2ccc(F)c(-c3n[nH]c4ncccc34)n2)CCN1 (stereo not drawn) [Compound 287] |
| < 0.5 µM | > 1.25 µM | > 1.25 µM | Fc1ccc(N2CCCC(C3CCCN3)C2)nc1-c1n[nH]c2ncccc12 (stereo not drawn) [Compound 314] |
| < 0.5 µM | > 1.25 µM | > 1.25 µM | CC(C)C[C@H]1CN(c2ccc(F)c(-c3n[nH]c4ncccc34)n2)CC[C@@H]1O [Compound 325] |
| < 0.05 µM | < 0.05 µM | > 1.25 µM | CC(C)(O)[C@@H]1CN(c2cccc(-c3n[nH]c4ncccc34)n2)CCN1 [Compound 176] |
| < 0.05 µM | < 0.5 µM | > 1.25 µM | CC(C)(F)C(C)(O)C1CN(c2ccc(F)c(-c3n[nH]c4ncccc34)n2)CCN1 (stereo not drawn) [Compound 250] |
| > 0.7 µM | > 1.25 µM | > 1.25 µM | CC1(N)CCCN(c2ccc(C(F)(F)F)c(-c3n[nH]c4ncccc34)n2)C1 (stereo not drawn) [Compound 319] |
| < 0.05 µM | < 0.05 µM | < 0.5 µM | CC(C)CC1(C)CN(c2cccc(-c3n[nH]c4ncccc34)n2)CCC1N (stereo not drawn) [Compound 189] |
| < 0.05 µM | < 0.5 µM | > 1.25 µM | COC(C)(C)C1CN(c2cccc(-c3n[nH]c4ncccc34)n2)CCN1 (stereo not drawn) [Compound 181] |
| > 0.7 µM | > 1.25 µM | > 1.25 µM | CCC[C@H]1CN(c2ccc(C(F)(F)F)c(-c3n[nH]c4ncccc34)n2)C[C@H]1N [Compound 340] |
| > 0.7 µM | > 1.25 µM | > 1.25 µM | CN(C)CC1CCCN(c2ccc(F)c(-c3n[nH]c4ncccc34)n2)C1 (stereo not drawn) [Compound 305] |
| < 0.5 µM | < 2.8 µM | > 1.25 µM | CCC(N)C1(C(F)(F)F)CCN(c2ccc(F)c(-c3n[nH]c4ncccc34)n2)C1 (stereo not drawn) [Compound 448] |
| > 0.7 µM | > 1.25 µM | > 1.25 µM | CN(C)C(=O)C1CN(c2ccc(C(F)(F)F)c(-c3n[nH]c4ncccc34)n2)CCN1 (stereo not drawn) [Compound 215] |

Further lines, the molecule ahead of its results:

| SMILES | Ki (PKC theta kinase) | Ki (PKC delta kinase) | Ki (PKC alpha kinase) |
| --- | --- | --- | --- |
| CC(C)C[C@H]1CN(c2cccc(-c3n[nH]c4ncccc34)n2)CC[C@@H]1O [Compound 145] | < 0.5 µM | > 1.25 µM | > 1.25 µM |
| CC(C)C[C@H]1CN(c2ccc(C(F)(F)F)c(-c3n[nH]c4ncccc34)n2)CCN1 [Compound 4, (S)-3-(6-(3-isobutylpiperazin-1-yl)-3-(trifluoromethyl)pyridin-2-yl)-1H-pyrazolo[3,4-b]pyridine] | < 0.05 µM | > 1.25 µM | > 1.25 µM |
| CC(C)C[C@@H]1CN(c2ccc(C(F)(F)F)c(-c3n[nH]c4ncccc34)n2)CC[C@@H]1N [Compound 138] | < 0.05 µM | < 0.5 µM | < 2.8 µM |
| CC(C)[C@H]1CN(c2ccc(C(F)(F)F)c(-c3n[nH]c4ncccc34)n2)CCN1 [Compound 98] | < 0.5 µM | > 2 µM | > 1.25 µM |
| FC(F)(F)c1ccc(N2CCNC(c3ccc(Cl)cc3)C2)nc1-c1n[nH]c2ncccc12 (stereo not drawn) [Compound 173] | > 0.7 µM | > 1.25 µM | > 1.25 µM |
| CC(C)C[C@H]1CN(c2ccc(C(F)(F)F)c(-c3n[nH]c4ncccc34)n2)CC[C@H]1N [Compound 84] | < 0.05 µM | < 0.5 µM | < 2.8 µM |
| OCC1CN(c2cccc(-c3n[nH]c4ncccc34)n2)CCN1 (stereo not drawn) [Compound 153] | < 0.5 µM | < 0.5 µM | < 2.8 µM |
| CC(C)(F)CC1CN(c2ccc(C(F)(F)F)c(-c3n[nH]c4ncccc34)n2)CCN1 (stereo not drawn) [Compound 102] | < 0.05 µM | > 1.25 µM | > 1.25 µM |
| c1ccc(C[C@H]2CN(c3cccc(-c4n[nH]c5ncccc45)n3)CCN2)cc1 [Compound 37] | < 0.05 µM | < 2.8 µM | > 1.25 µM |
| CC(C)C[C@H]1CN(c2cccc(-c3n[nH]c4ncccc34)n2)CC[C@@H]1N [Compound 130] | < 0.05 µM | < 0.5 µM | < 2.8 µM |
| C[C@H]1CN(c2cccc(-c3n[nH]c4ncc(Cl)cc34)n2)CCN1 [Compound 43] | < 0.5 µM | < 0.5 µM | < 0.5 µM |
| C1=C(c2cccc(-c3n[nH]c4ncccc34)n2)CCNC1 [Compound 157] | < 0.5 µM | > 1.25 µM | > 1.25 µM |
| CC(C)CC1(C)CN(c2nc(-c3n[nH]c4ncccc34)ccc2F)CCN1 (stereo not drawn) [Compound 132] | < 0.05 µM | < 0.5 µM | < 2.8 µM |
| FC(F)(F)c1ccc(N2CCN[C@@H](Cc3ccccc3)C2)nc1-c1n[nH]c2ncccc12 [Compound 121] | < 0.5 µM | > 1.25 µM | > 1.25 µM |
| CC(C)C[C@H]1CN(c2ccnc(-c3n[nH]c4ncccc34)n2)CCN1 [Compound 66] | < 0.5 µM | < 2.8 µM | > 1.25 µM |
| CC(C)(C)[C@H]1CN(c2cccc(-c3n[nH]c4ncccc34)n2)CCN1 [Compound 76] | < 0.05 µM | < 0.5 µM | < 2.8 µM |
| CC(C)C[C@@H]1CC(F)(c2cccc(-c3n[nH]c4ncccc34)n2)CCN1 (stereo partly drawn) [Compound 99] | < 0.5 µM | > 2 µM | > 1.25 µM |
| FC1(c2cccc(-c3n[nH]c4ncccc34)n2)CCNCC1 [Compound 83] | < 0.05 µM | < 0.5 µM | < 2.8 µM |
| NC1CCN(c2cc(C(F)(F)F)cc(-c3n[nH]c4ncccc34)n2)CC1 [Compound 108] | < 0.5 µM | < 2.8 µM | > 1.25 µM |
| Cc1cc(-c2n[nH]c3ncccc23)nc(N2CCNCC2)c1 [Compound 93] | > 0.7 µM | > 2 µM | > 1.25 µM |
| CC(F)(F)CC1CN(c2ccc(F)c(-c3n[nH]c4ncccc34)n2)CCN1 (stereo not drawn) [Compound 155] | < 0.05 µM | < 0.5 µM | > 1.25 µM |
